From patent publication US8609609B2, “Peptides and methods of use as therapeutics and screening agents” (North Carolina State University, priority 2008, dated 2013)
No end group written: not given here.

Assays:
[1] = system: fully modified human tRNA^LYS3 anticodon stem and loop domain (modified ASL^LYS3); assay: Fluorescence titration of fluorescein-conjugated peptides with modified ASL^LYS3; format: binding; details: for specific recognition of the modifications of the ASLLys3: comparison of titration with modified and with unmodified ASL^LYS3; for binding to the modified ASL^LYS3 (fluorescence monitored): fluorescein-conjugated peptide titrated with modified ASL^LYS3
Excerpt: (§1) The sequences of the target ASLLys3 and that of control ASLs are shown. Peptides were selected against the ASLLys3 and tested against all three. The ASL^LYS3 contains the natural modified nucleosides, 5-methoxycarbonylmethyl-2-thiouridine-34 (mcm5s2U34), 2-methylthio-N6-threonylcarbamoyladenosine-37 (ms2t6A37), and pseudouridine-39 (Ψ39).
(§2) Peptides were selected by phage display methods to bind to the modified ASL^LYS3. Control peptides were selected for their lack of recognition. Each peptide is synthesized with a conjugated fluorescein as a reporter. Here control peptide #21 is titrated with the three ASLs and the fluorescence is monitored.
Peptides #6 and #17 were selected by phage display methods to bind to the modified ASL^LYS3. These peptides along with control peptide #21 were synthesized with a conjugated fluorescein as a reporter. Here the three peptides are titrated with the modified ASLLys3 and the fluorescence is monitored.

Feline (FEA) cells = assay: Shear-loading of feline (FEA) cells with fluorescein-conjugated peptide: fluorescence microscopy and toxicity staining; format: cell-based; details: after 1, 2 and 3 days, at the concentrations used for loading
Excerpt: Feline (FEA) cells are “shear-loaded” with the peptide #6 that binds the modified ASLLys3. Fluorescein-conjugated, peptide #6 is located with fluorescence microscopy First row: Sham loaded cells. Second row: Peptide loaded. Third row: Peptide loaded at 40× magnification.

unmodified ASL^LYS3 = assay: Fluorescence titration of fluorescein-conjugated peptides with unmodified ASL^LYS3; format: binding; details: fluorescein-conjugated peptide titrated with unmodified ASL^LYS3
Excerpt: as §1, §2
Peptides #6 and #17 were selected by phage display methods to bind to the modified ASL^LYS3. These peptides along with control peptide #21 were synthesized with a conjugated fluorescein as a reporter. Here the three peptides are titrated with the unmodified ASL^LYS3 and the fluorescence is monitored.

[2] = system: EIAV infected feline (FEA) cells; assay: Toxicity by staining in EIAV infected feline (FEA) cells shear-loaded with peptide; format: cell-based
Experimental: (§3) EIAV is a lentivirus as is HIV, and as such utilizes the host cell tRNA^LYS3 for priming reverse transcription. EIAV infected feline (FEA) cells are “shear-loaded” with three concentrations (5, 10, 35) of peptide #6 that binds the modified ASL^LYS3 portion of HIV primer. Cells are sham loaded with phosphate buffered saline (PBS). The effect of the peptide on reverse transcriptase activity and on toxicity are determined after 1, 2 and 3 days.

[3] = system: equine infectious anemia virus (EIAV); assay: Reverse transcriptase activity in EIAV infected feline (FEA) cells shear-loaded with peptide; format: cell-based
Experimental: as §3

PKAFQYGGRAVGGLW (hASL LYS3 binding peptide) [compound 7]
specific recognition of the modifications of the ASLLys3 [1]: specifically recognizing the modifications

PAVASTSSLIIDGPF (also: fluorescein label, position not given here) [peptide #6]
toxicity, determined by staining (Feline (FEA) cells): not toxic
binding to the unmodified ASL^LYS3 (fluorescence monitored) (unmodified ASL^LYS3): do not exhibit binding
specific recognition of the modifications of the ASLLys3 [1]: specifically recognizing the modifications
binding to the modified ASL^LYS3 (fluorescence monitored) [1]: bind
toxicity (staining of the cells) ([2]; high concentration): only slightly toxic
toxicity (staining of the cells) ([2]; low and middle concentrations): not toxic
reverse transcriptase activity ([3]; EIAV infected FEA cells loaded with fluorescein-conjugated peptide, three concentrations (5, 10, 35), versus PBS sham loaded): significantly reduced
bioactivity in cells against reverse transcription ([3]; EIAV infected FEA cells, at days 2 and 3): significant bioactivity

NGPECNAYMVRCRGYH (cysteine pairing not given here; also: fluorescein label, position not given here) [compound 17]
binding to the unmodified ASL^LYS3 (fluorescence monitored) (unmodified ASL^LYS3): do not exhibit binding
binding to the modified ASL^LYS3 (fluorescence monitored) [1]: bind
